Laboratory results reported in PubChem BioAssay (NCI).
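Test compounds were applied to cells in 96-well plates for 48 hours at 5 doses. Here, GI50 denotes the concentration required for 50% inhibition of growth. TGI: concentration producing complete growth inhibition.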

How the values were obtained:
Assay in all cases: NCI-60 cell line screen, 48 h
ACHN renal = tested on: ACHN renal
HOP-62 NSCLC = tested on: HOP-62 NSCLC
IGROV1 ovarian = tested on: IGROV1 ovarian
RXF 393 renal = tested on: RXF 393 renal
SK-OV-3 ovarian = tested on: SK-OV-3 ovarian
SNB-75 CNS = tested on: SNB-75 CNS
HCT-116 colon = tested on: HCT-116 colon
NCI-H460 lung = tested on: NCI-H460 lung
SK-MEL-5 melanoma = tested on: SK-MEL-5 melanoma
SR leukemia = tested on: SR leukemia

COc1ccc(C(=O)/C=C/c2cc(C(=O)c3cc(OC)c(OC)c(OC)c3)ccc2OC)cc1
GI50 (ACHN renal): 3.19 µM | TGI (ACHN renal): > 100 µM | GI50 (HOP-62 NSCLC): 11.8 µM | TGI (HOP-62 NSCLC): 94.5 µM | GI50 (IGROV1 ovarian): 8.82 µM | TGI (IGROV1 ovarian): > 100 µM | GI50 (RXF 393 renal): 14.7 µM | TGI (RXF 393 renal): > 100 µM | GI50 (SK-OV-3 ovarian): > 100 µM | TGI (SK-OV-3 ovarian): > 100 µM | GI50 (SNB-75 CNS): 4.75 µM | TGI (SNB-75 CNS): 33.7 µM

Cc1nc(NC(=S)Nc2ccc(F)cc2)sc1C(=O)NNC(=S)Nc1ccc(F)cc1
GI50 (HCT-116 colon): 7.93 µM | TGI (HCT-116 colon): > 100 µM | GI50 (HOP-62 NSCLC): 26.5 µM | TGI (HOP-62 NSCLC): 82.5 µM | GI50 (NCI-H460 lung): 3.85 µM | TGI (NCI-H460 lung): 16.2 µM | GI50 (SK-MEL-5 melanoma): 3.5 µM | TGI (SK-MEL-5 melanoma): 15.2 µM | GI50 (SK-OV-3 ovarian): 15.7 µM | TGI (SK-OV-3 ovarian): 61.6 µM | GI50 (SNB-75 CNS): 15.3 µM | TGI (SNB-75 CNS): 54.7 µM

C=CCN=C1N=C(CC(=O)OCC)CS1
TGI (ACHN renal): > 100 µM | TGI (HCT-116 colon): > 100 µM | TGI (HOP-62 NSCLC): > 100 µM | TGI (IGROV1 ovarian): > 100 µM | TGI (NCI-H460 lung): > 100 µM | TGI (RXF 393 renal): > 100 µM | TGI (SK-MEL-5 melanoma): > 100 µM | TGI (SK-OV-3 ovarian): > 100 µM | TGI (SNB-75 CNS): > 100 µM

CCOC(=O)NC(=O)c1cn(CCCOC(=O)CCCCCCCCC(=O)OCCCn2cc(C(=O)NC(=O)OCC)c(=O)[nH]c2=O)c(=O)[nH]c1=O
TGI (ACHN renal): 42.1 µM | TGI (HCT-116 colon): > 100 µM | TGI (HOP-62 NSCLC): > 100 µM | TGI (IGROV1 ovarian): 58.1 µM | TGI (NCI-H460 lung): > 100 µM | TGI (SK-MEL-5 melanoma): > 100 µM | TGI (SK-OV-3 ovarian): > 100 µM | TGI (SNB-75 CNS): > 100 µM

Cc1nc(Nc2ccc(F)c(Cl)c2)sc1C(=O)O
GI50 (ACHN renal): 1.52 µM | TGI (ACHN renal): 3.24 µM | GI50 (HCT-116 colon): 1.51 µM | TGI (HCT-116 colon): 3.34 µM | GI50 (HOP-62 NSCLC): 1.42 µM | TGI (HOP-62 NSCLC): 2.93 µM | GI50 (IGROV1 ovarian): 1.63 µM | TGI (IGROV1 ovarian): 5.03 µM | GI50 (NCI-H460 lung): 2.07 µM | TGI (NCI-H460 lung): 4.74 µM | GI50 (RXF 393 renal): 1.71 µM | TGI (RXF 393 renal): 3.94 µM | GI50 (SK-MEL-5 melanoma): 1.48 µM | TGI (SK-MEL-5 melanoma): 2.82 µM | GI50 (SK-OV-3 ovarian): 1.83 µM | TGI (SK-OV-3 ovarian): 4.33 µM | GI50 (SNB-75 CNS): 1.18 µM | TGI (SNB-75 CNS): 4.31 µM

NC1CCC[C@@H](O)[C@H]1O (some centres undefined)
TGI (ACHN renal): > 100 µM | TGI (HCT-116 colon): > 100 µM | TGI (HOP-62 NSCLC): > 100 µM | TGI (IGROV1 ovarian): > 100 µM | TGI (NCI-H460 lung): > 100 µM | TGI (SK-MEL-5 melanoma): > 100 µM | TGI (SK-OV-3 ovarian): > 100 µM | TGI (SNB-75 CNS): > 100 µM | TGI (SR leukemia): > 100 µM

N#CC1(c2nc3ccccc3o2)C(=O)C(=O)N(c2ccc(Cl)c(Cl)c2)C(=O)C1=O
TGI (ACHN renal): > 100 µM | TGI (HOP-62 NSCLC): > 100 µM | TGI (NCI-H460 lung): > 100 µM | TGI (RXF 393 renal): > 100 µM | TGI (SK-MEL-5 melanoma): > 100 µM | TGI (SNB-75 CNS): > 100 µM

CC[O-].CC[O-].O=Nc1ccc2cc([O-])ccc2c1.O=Nc1ccc2cc([O-])ccc2c1.[Ti+4]
GI50 (ACHN renal): 1.58 µM | TGI (ACHN renal): 2.96 µM | GI50 (HCT-116 colon): 1.77 µM | TGI (HCT-116 colon): 3.22 µM | GI50 (HOP-62 NSCLC): 3.3 µM | TGI (HOP-62 NSCLC): 10.5 µM | GI50 (NCI-H460 lung): 3.1 µM | TGI (NCI-H460 lung): > 100 µM | GI50 (SK-OV-3 ovarian): 14.6 µM | TGI (SK-OV-3 ovarian): 20 µM | GI50 (SR leukemia): 0.0107 µM | TGI (SR leukemia): 2.95 µM

CN(/N=N/c1nc(OCc2ccccc2)c2[nH]cnc2n1)C(=O)N(C)/N=N/c1nc(OCc2ccccc2)c2[nH]cnc2n1
GI50 (ACHN renal): 31.3 µM | TGI (ACHN renal): > 100 µM | GI50 (HCT-116 colon): 35.2 µM | TGI (HCT-116 colon): > 100 µM | GI50 (HOP-62 NSCLC): 96.1 µM | TGI (HOP-62 NSCLC): > 100 µM | GI50 (IGROV1 ovarian): 34.9 µM | TGI (IGROV1 ovarian): > 100 µM | GI50 (NCI-H460 lung): 26.1 µM | TGI (NCI-H460 lung): > 100 µM | GI50 (RXF 393 renal): 79.9 µM | TGI (RXF 393 renal): > 100 µM | GI50 (SK-MEL-5 melanoma): 20.9 µM | TGI (SK-MEL-5 melanoma): 61.5 µM | GI50 (SK-OV-3 ovarian): 42.1 µM | TGI (SK-OV-3 ovarian): > 100 µM | GI50 (SNB-75 CNS): > 100 µM | TGI (SNB-75 CNS): > 100 µM
